These results are taken from ChEMBL document CHEMBL1921769, “Synthesis and docking study of 2-phenylaminopyrimidine Abl tyrosine kinase inhibitors” (Bioorg Med Chem Lett, 2011).

The target of this assay is Tyrosine-protein kinase ABL1 (Homo sapiens, UniProt P00519). The assay is described as follows: Inhibition of Abl using DAIpYAAPFAKKK phosphopeptide as substrate by MALDI-MS analysis.

pIC50: −log10 of the molar value.

Chain of Tyrosine-protein kinase ABL1 (P00519 whole entry): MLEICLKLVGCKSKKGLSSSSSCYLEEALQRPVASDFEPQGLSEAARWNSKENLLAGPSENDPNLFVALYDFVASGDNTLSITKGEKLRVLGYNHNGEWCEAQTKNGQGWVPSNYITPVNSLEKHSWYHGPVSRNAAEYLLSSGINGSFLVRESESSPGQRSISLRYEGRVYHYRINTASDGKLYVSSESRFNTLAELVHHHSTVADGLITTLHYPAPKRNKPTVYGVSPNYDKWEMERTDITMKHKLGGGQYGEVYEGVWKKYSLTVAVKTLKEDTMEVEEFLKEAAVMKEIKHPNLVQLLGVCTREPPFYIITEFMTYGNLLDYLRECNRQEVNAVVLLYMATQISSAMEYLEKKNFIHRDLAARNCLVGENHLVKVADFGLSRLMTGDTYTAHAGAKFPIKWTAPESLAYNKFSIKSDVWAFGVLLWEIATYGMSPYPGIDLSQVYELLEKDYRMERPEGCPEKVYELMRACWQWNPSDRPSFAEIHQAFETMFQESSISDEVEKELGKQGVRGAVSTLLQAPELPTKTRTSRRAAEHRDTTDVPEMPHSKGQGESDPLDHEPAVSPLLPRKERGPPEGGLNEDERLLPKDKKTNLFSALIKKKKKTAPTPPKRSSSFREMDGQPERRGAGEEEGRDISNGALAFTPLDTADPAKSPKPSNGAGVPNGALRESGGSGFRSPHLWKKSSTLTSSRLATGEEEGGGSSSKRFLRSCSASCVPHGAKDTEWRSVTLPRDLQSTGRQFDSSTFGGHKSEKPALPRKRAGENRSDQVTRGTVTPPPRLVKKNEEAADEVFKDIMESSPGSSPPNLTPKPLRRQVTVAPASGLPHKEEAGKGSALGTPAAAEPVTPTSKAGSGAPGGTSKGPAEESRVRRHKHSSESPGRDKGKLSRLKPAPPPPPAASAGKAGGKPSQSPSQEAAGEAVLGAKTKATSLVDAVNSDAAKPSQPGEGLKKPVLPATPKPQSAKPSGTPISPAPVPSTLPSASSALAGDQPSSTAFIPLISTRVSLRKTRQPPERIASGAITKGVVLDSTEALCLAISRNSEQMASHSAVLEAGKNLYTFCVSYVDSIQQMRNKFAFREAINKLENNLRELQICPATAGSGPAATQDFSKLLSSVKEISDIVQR

Consider `CSc1cccc(C(=O)Nc2ccc(C)c(Nc3nccc(-c4cccnc4)n3)c2)c1`, for which the negative logarithm of the IC50 (pIC50) is 5.96.

Take `Cc1ccc(NC(=O)c2ccc(N)c(N)c2)cc1Nc1nccc(-c2cccnc2)n1`: the pIC50 is less than 4.60.

`Cc1ccc(NC(=O)c2ccccc2)cc1Nc1nccc(-c2cccnc2)n1` gave a pIC50 of 4.90.
